Laboratory results from the NIST ThermoML archive (doi:10.1016/j.jct.2018.03.013).
Numbers after ± are expanded uncertainties.

Assay: xn = mol fraction of the nth substance listed
Details: 100 kPa, Liquid; for speed of sound: Frequency=3 MHz, Linear variable-path acoustic interferometer; for mass density: Pycnometric method

## C=C(C)C(=O)OCCCC [butyl 2-methyl-2-propenoate] + CC#N
293.15 K, x2 = 0
  speed of sound: 1241.7 ± 1.7 m/s
  mass density: 895.19 ± 1 kg/m3
293.15 K, x2 = 0.0681
  speed of sound: 1244.4 ± 1.7 m/s
  mass density: 892.7 ± 1 kg/m3
293.15 K, x2 = 0.1359
  speed of sound: 1247.2 ± 1.7 m/s
  mass density: 889.93 ± 1 kg/m3
293.15 K, x2 = 0.1976
  speed of sound: 1249.7 ± 1.7 m/s
  mass density: 887.12 ± 1 kg/m3
293.15 K, x2 = 0.2728
  speed of sound: 1252.7 ± 1.7 m/s
  mass density: 883.27 ± 1 kg/m3
293.15 K, x2 = 0.3442
  speed of sound: 1255.5 ± 1.7 m/s
  mass density: 879.11 ± 1 kg/m3
293.15 K, x2 = 0.4143
  speed of sound: 1258.2 ± 1.7 m/s
  mass density: 874.45 ± 1 kg/m3
293.15 K, x2 = 0.4658
  speed of sound: 1260.3 ± 1.7 m/s
  mass density: 870.61 ± 1 kg/m3
293.15 K, x2 = 0.5243
  speed of sound: 1262.7 ± 1.7 m/s
  mass density: 865.72 ± 1 kg/m3
293.15 K, x2 = 0.5649
  speed of sound: 1264.5 ± 1.7 m/s
  mass density: 861.96 ± 1 kg/m3
293.15 K, x2 = 0.639
  speed of sound: 1268.1 ± 1.7 m/s
  mass density: 854.15 ± 1 kg/m3
293.15 K, x2 = 0.7112
  speed of sound: 1272.2 ± 1.7 m/s
  mass density: 845.09 ± 1 kg/m3
293.15 K, x2 = 0.7836
  speed of sound: 1277.3 ± 1.7 m/s
  mass density: 834.14 ± 1 kg/m3
293.15 K, x2 = 0.8558
  speed of sound: 1283.7 ± 1.6 m/s
  mass density: 820.72 ± 1 kg/m3
293.15 K, x2 = 0.928
  speed of sound: 1292.4 ± 1.6 m/s
  mass density: 803.86 ± 1 kg/m3
298.15 K, x2 = 0
  speed of sound: 1222.1 ± 1.7 m/s
  mass density: 890.48 ± 1 kg/m3
298.15 K, x2 = 0.0681
  speed of sound: 1224.8 ± 1.7 m/s
  mass density: 887.98 ± 1 kg/m3
298.15 K, x2 = 0.1359
  speed of sound: 1227.6 ± 1.7 m/s
  mass density: 885.2 ± 1 kg/m3
298.15 K, x2 = 0.1976
  speed of sound: 1230 ± 1.7 m/s
  mass density: 882.38 ± 1 kg/m3
298.15 K, x2 = 0.2728
  speed of sound: 1232.9 ± 1.7 m/s
  mass density: 878.51 ± 1 kg/m3
298.15 K, x2 = 0.3442
  speed of sound: 1235.5 ± 1.7 m/s
  mass density: 874.33 ± 1 kg/m3
298.15 K, x2 = 0.4143
  speed of sound: 1238.2 ± 1.7 m/s
  mass density: 869.65 ± 1 kg/m3
298.15 K, x2 = 0.4658
  speed of sound: 1240.2 ± 1.7 m/s
  mass density: 865.78 ± 1 kg/m3
298.15 K, x2 = 0.5243
  speed of sound: 1242.5 ± 1.7 m/s
  mass density: 860.86 ± 1 kg/m3
298.15 K, x2 = 0.5649
  speed of sound: 1244.2 ± 1.6 m/s
  mass density: 857.08 ± 1 kg/m3
298.15 K, x2 = 0.639
  speed of sound: 1247.7 ± 1.6 m/s
  mass density: 849.22 ± 1 kg/m3
298.15 K, x2 = 0.7112
  speed of sound: 1251.6 ± 1.6 m/s
  mass density: 840.11 ± 1 kg/m3
298.15 K, x2 = 0.7836
  speed of sound: 1256.4 ± 1.6 m/s
  mass density: 829.09 ± 1 kg/m3
298.15 K, x2 = 0.8558
  speed of sound: 1262.6 ± 1.6 m/s
  mass density: 815.6 ± 1 kg/m3
298.15 K, x2 = 0.928
  speed of sound: 1271 ± 1.6 m/s
  mass density: 798.66 ± 1 kg/m3
303.15 K, x2 = 0
  speed of sound: 1202.4 ± 1.7 m/s
  mass density: 885.78 ± 1 kg/m3
303.15 K, x2 = 0.0681
  speed of sound: 1205.3 ± 1.7 m/s
  mass density: 883.27 ± 1 kg/m3
303.15 K, x2 = 0.1359
  speed of sound: 1208.1 ± 1.7 m/s
  mass density: 880.47 ± 1 kg/m3
303.15 K, x2 = 0.1976
  speed of sound: 1210.5 ± 1.7 m/s
  mass density: 877.64 ± 1 kg/m3
303.15 K, x2 = 0.2728
  speed of sound: 1213.3 ± 1.7 m/s
  mass density: 873.75 ± 1 kg/m3
303.15 K, x2 = 0.3442
  speed of sound: 1216 ± 1.7 m/s
  mass density: 869.55 ± 1 kg/m3
303.15 K, x2 = 0.4143
  speed of sound: 1218.7 ± 1.6 m/s
  mass density: 864.84 ± 1 kg/m3
303.15 K, x2 = 0.4658
  speed of sound: 1220.7 ± 1.6 m/s
  mass density: 860.95 ± 1 kg/m3
303.15 K, x2 = 0.5243
  speed of sound: 1223.1 ± 1.6 m/s
  mass density: 856.01 ± 1 kg/m3
303.15 K, x2 = 0.5649
  speed of sound: 1224.8 ± 1.6 m/s
  mass density: 852.2 ± 1 kg/m3
303.15 K, x2 = 0.639
  speed of sound: 1228.3 ± 1.6 m/s
  mass density: 844.3 ± 1 kg/m3
303.15 K, x2 = 0.7112
  speed of sound: 1232.3 ± 1.6 m/s
  mass density: 835.14 ± 1 kg/m3
303.15 K, x2 = 0.7836
  speed of sound: 1237.2 ± 1.6 m/s
  mass density: 824.06 ± 1 kg/m3
303.15 K, x2 = 0.8558
  speed of sound: 1243.5 ± 1.6 m/s
  mass density: 810.49 ± 1 kg/m3
303.15 K, x2 = 0.928
  speed of sound: 1252 ± 1.6 m/s
  mass density: 793.46 ± 1 kg/m3
308.15 K, x2 = 0
  speed of sound: 1183 ± 1.7 m/s
  mass density: 881.07 ± 1 kg/m3
308.15 K, x2 = 0.0681
  speed of sound: 1185.9 ± 1.7 m/s
  mass density: 878.55 ± 1 kg/m3
308.15 K, x2 = 0.1359
  speed of sound: 1188.7 ± 1.7 m/s
  mass density: 875.74 ± 1 kg/m3
308.15 K, x2 = 0.1976
  speed of sound: 1191.2 ± 1.7 m/s
  mass density: 872.89 ± 1 kg/m3
308.15 K, x2 = 0.2728
  speed of sound: 1194.1 ± 1.6 m/s
  mass density: 868.98 ± 1 kg/m3
308.15 K, x2 = 0.3442
  speed of sound: 1196.8 ± 1.6 m/s
  mass density: 864.75 ± 1 kg/m3
308.15 K, x2 = 0.4143
  speed of sound: 1199.4 ± 1.6 m/s
  mass density: 860.01 ± 1 kg/m3
308.15 K, x2 = 0.4658
  speed of sound: 1201.4 ± 1.6 m/s
  mass density: 856.1 ± 1 kg/m3
308.15 K, x2 = 0.5243
  speed of sound: 1203.8 ± 1.6 m/s
  mass density: 851.13 ± 1 kg/m3
308.15 K, x2 = 0.5649
  speed of sound: 1205.6 ± 1.6 m/s
  mass density: 847.3 ± 1 kg/m3
308.15 K, x2 = 0.639
  speed of sound: 1209.1 ± 1.6 m/s
  mass density: 839.36 ± 1 kg/m3
308.15 K, x2 = 0.7112
  speed of sound: 1213.1 ± 1.6 m/s
  mass density: 830.15 ± 1 kg/m3
308.15 K, x2 = 0.7836
  speed of sound: 1218.1 ± 1.6 m/s
  mass density: 819.01 ± 1 kg/m3
308.15 K, x2 = 0.8558
  speed of sound: 1224.4 ± 1.6 m/s
  mass density: 805.37 ± 1 kg/m3
308.15 K, x2 = 0.928
  speed of sound: 1233 ± 1.6 m/s
  mass density: 788.25 ± 1 kg/m3
313.15 K, x2 = 0
  speed of sound: 1163.8 ± 1.7 m/s
  mass density: 876.35 ± 1 kg/m3
313.15 K, x2 = 0.0681
  speed of sound: 1166.7 ± 1.7 m/s
  mass density: 873.82 ± 1 kg/m3
313.15 K, x2 = 0.1359
  speed of sound: 1169.6 ± 1.6 m/s
  mass density: 871 ± 1 kg/m3
313.15 K, x2 = 0.1976
  speed of sound: 1172.1 ± 1.6 m/s
  mass density: 868.13 ± 1 kg/m3
313.15 K, x2 = 0.2728
  speed of sound: 1175 ± 1.6 m/s
  mass density: 864.2 ± 1 kg/m3
313.15 K, x2 = 0.3442
  speed of sound: 1177.7 ± 1.6 m/s
  mass density: 859.95 ± 1 kg/m3
313.15 K, x2 = 0.4143
  speed of sound: 1180.4 ± 1.6 m/s
  mass density: 855.18 ± 1 kg/m3
313.15 K, x2 = 0.4658
  speed of sound: 1182.4 ± 1.6 m/s
  mass density: 851.24 ± 1 kg/m3
313.15 K, x2 = 0.5243
  speed of sound: 1184.8 ± 1.6 m/s
  mass density: 846.24 ± 1 kg/m3
313.15 K, x2 = 0.5649
  speed of sound: 1186.6 ± 1.6 m/s
  mass density: 842.39 ± 1 kg/m3
313.15 K, x2 = 0.639
  speed of sound: 1190.2 ± 1.6 m/s
  mass density: 834.41 ± 1 kg/m3
313.15 K, x2 = 0.7112
  speed of sound: 1194.2 ± 1.6 m/s
  mass density: 825.14 ± 1 kg/m3
313.15 K, x2 = 0.7836
  speed of sound: 1199.3 ± 1.6 m/s
  mass density: 813.95 ± 1 kg/m3
313.15 K, x2 = 0.8558
  speed of sound: 1205.7 ± 1.6 m/s
  mass density: 800.24 ± 1 kg/m3
313.15 K, x2 = 0.928
  speed of sound: 1214.3 ± 1.6 m/s
  mass density: 783.04 ± 1 kg/m3
318.15 K, x2 = 0
  speed of sound: 1145.7 ± 1.7 m/s
  mass density: 871.64 ± 1 kg/m3
318.15 K, x2 = 0.0681
  speed of sound: 1148.6 ± 1.6 m/s
  mass density: 869.11 ± 1 kg/m3
318.15 K, x2 = 0.1359
  speed of sound: 1151.5 ± 1.6 m/s
  mass density: 866.27 ± 1 kg/m3
318.15 K, x2 = 0.1976
  speed of sound: 1154 ± 1.6 m/s
  mass density: 863.39 ± 1 kg/m3
318.15 K, x2 = 0.2728
  speed of sound: 1156.9 ± 1.6 m/s
  mass density: 859.43 ± 1 kg/m3
318.15 K, x2 = 0.3442
  speed of sound: 1159.6 ± 1.6 m/s
  mass density: 855.15 ± 1 kg/m3
318.15 K, x2 = 0.4143
  speed of sound: 1162.3 ± 1.6 m/s
  mass density: 850.35 ± 1 kg/m3
318.15 K, x2 = 0.4658
  speed of sound: 1164.3 ± 1.6 m/s
  mass density: 846.39 ± 1 kg/m3
318.15 K, x2 = 0.5243
  speed of sound: 1166.7 ± 1.6 m/s
  mass density: 841.36 ± 1 kg/m3
318.15 K, x2 = 0.5649
  speed of sound: 1168.4 ± 1.6 m/s
  mass density: 837.49 ± 1 kg/m3
318.15 K, x2 = 0.639
  speed of sound: 1171.9 ± 1.6 m/s
  mass density: 829.46 ± 1 kg/m3
318.15 K, x2 = 0.7112
  speed of sound: 1175.9 ± 1.6 m/s
  mass density: 820.14 ± 1 kg/m3
318.15 K, x2 = 0.7836
  speed of sound: 1180.9 ± 1.6 m/s
  mass density: 808.89 ± 1 kg/m3
318.15 K, x2 = 0.8558
  speed of sound: 1187.3 ± 1.6 m/s
  mass density: 795.11 ± 1 kg/m3
318.15 K, x2 = 0.928
  speed of sound: 1195.8 ± 1.6 m/s
  mass density: 777.83 ± 1 kg/m3
